Reference: ChEMBL document CHEMBL1152699, “Taste-guided identification of high potency TRPA1 agonists from Perilla frutescens” (Bioorg Med Chem, 2009)
Active and inactive are the calls of the source. No cut-off for these calls is given here.

Tests used:
Format in all cases: functional, cell-based
[1] = molecular target: Transient receptor potential cation channel subfamily M member 8 (Rattus norvegicus, UniProt Q8R455); experiment: (§1) Agonist activity at rat recombinant TRPM8 receptor expressed in HEK293 cells assessed as increase in intracellular calcium concentration by fluorimetric test
[2] = molecular target: Transient receptor potential cation channel subfamily M member 8 (Rattus norvegicus) (UniProt Q8R455); experiment: as §1
[3] = molecular target: Transient receptor potential cation channel subfamily M member 8 (Rattus norvegicus) (UniProt Q8R455); experiment: Antagonist activity at rat recombinant TRPM8 receptor expressed in HEK293 cells assessed as inhibition of icilin-induced increase in intracellular calcium concentration at 200 uM preincubated for 5 mins before icilin treatment by fluorimetric test
[4] = molecular target: Transient receptor potential cation channel subfamily A member 1 (Rattus norvegicus) (UniProt Q6RI86); experiment: Agonist activity at rat recombinant TRPA1 receptor expressed in HEK293 cells assessed as increase in intracellular calcium concentration by fluorimetric test in presence of TRP channel blocker ruthenium red
[5] = molecular target: Transient receptor potential cation channel subfamily M member 8 (Rattus norvegicus) (UniProt Q8R455); experiment: Antagonist activity at rat recombinant TRPM8 receptor expressed in HEK293 cells assessed as inhibition of icilin-induced increase in intracellular calcium concentration at 200 uM preincubated […] before icilin treatment by fluorimetric test
[6] = molecular target: Transient receptor potential cation channel subfamily A member 1 (Rattus norvegicus) (UniProt Q6RI86); experiment: Antagonist activity at rat recombinant TRPA1 receptor expressed in HEK293 cells assessed as inhibition of allylisothiocyanate-induced increase in intracellular calcium concentration preincubated for 5 mins by fluorimetric test
[7] = molecular target: Transient receptor potential cation channel subfamily A member 1 (Rattus norvegicus, UniProt Q6RI86); experiment: Agonist activity at rat recombinant TRPA1 receptor expressed in HEK293 cells assessed as increase in intracellular calcium concentration by fluorimetric test
[8] = molecular target: Transient receptor potential cation channel subfamily A member 1 (Rattus norvegicus) (UniProt Q6RI86); experiment: Agonist activity at rat recombinant TRPA1 receptor expressed in HEK293 cells assessed as increase in intracellular calcium concentration by fluorimetric test relative to 100 uM allylisothiocyanate

Chain of Transient receptor potential cation channel subfamily M member 8 (Rattus norvegicus) (Q8R455 whole entry, looked up): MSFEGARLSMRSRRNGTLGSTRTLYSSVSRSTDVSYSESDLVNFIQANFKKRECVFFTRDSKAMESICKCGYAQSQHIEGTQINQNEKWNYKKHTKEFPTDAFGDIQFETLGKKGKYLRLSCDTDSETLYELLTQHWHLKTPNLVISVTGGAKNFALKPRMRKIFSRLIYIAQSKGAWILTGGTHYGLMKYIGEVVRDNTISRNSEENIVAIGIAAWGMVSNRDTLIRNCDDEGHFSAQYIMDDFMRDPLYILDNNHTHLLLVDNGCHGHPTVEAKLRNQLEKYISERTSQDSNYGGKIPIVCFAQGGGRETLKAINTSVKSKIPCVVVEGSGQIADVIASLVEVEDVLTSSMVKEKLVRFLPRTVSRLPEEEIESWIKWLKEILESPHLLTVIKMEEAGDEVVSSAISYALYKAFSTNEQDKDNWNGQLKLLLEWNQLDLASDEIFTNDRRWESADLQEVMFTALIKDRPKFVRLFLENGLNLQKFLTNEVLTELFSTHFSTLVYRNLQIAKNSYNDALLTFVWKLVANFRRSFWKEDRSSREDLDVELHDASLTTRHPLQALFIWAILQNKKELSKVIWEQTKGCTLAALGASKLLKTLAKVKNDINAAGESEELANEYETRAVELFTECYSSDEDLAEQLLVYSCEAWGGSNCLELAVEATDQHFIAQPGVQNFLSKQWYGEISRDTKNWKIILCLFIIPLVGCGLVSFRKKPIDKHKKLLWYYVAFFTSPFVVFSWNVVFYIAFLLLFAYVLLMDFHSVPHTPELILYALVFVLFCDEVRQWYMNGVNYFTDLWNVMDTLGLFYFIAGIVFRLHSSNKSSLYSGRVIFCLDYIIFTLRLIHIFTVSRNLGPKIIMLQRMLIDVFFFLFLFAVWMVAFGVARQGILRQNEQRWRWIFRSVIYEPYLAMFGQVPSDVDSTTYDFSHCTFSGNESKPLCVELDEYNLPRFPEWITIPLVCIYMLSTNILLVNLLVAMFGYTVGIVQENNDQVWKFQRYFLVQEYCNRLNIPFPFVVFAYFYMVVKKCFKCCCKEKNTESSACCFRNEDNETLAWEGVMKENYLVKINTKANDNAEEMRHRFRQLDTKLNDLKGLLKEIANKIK
Chain of Transient receptor potential cation channel subfamily A member 1 (Q6RI86 whole entry): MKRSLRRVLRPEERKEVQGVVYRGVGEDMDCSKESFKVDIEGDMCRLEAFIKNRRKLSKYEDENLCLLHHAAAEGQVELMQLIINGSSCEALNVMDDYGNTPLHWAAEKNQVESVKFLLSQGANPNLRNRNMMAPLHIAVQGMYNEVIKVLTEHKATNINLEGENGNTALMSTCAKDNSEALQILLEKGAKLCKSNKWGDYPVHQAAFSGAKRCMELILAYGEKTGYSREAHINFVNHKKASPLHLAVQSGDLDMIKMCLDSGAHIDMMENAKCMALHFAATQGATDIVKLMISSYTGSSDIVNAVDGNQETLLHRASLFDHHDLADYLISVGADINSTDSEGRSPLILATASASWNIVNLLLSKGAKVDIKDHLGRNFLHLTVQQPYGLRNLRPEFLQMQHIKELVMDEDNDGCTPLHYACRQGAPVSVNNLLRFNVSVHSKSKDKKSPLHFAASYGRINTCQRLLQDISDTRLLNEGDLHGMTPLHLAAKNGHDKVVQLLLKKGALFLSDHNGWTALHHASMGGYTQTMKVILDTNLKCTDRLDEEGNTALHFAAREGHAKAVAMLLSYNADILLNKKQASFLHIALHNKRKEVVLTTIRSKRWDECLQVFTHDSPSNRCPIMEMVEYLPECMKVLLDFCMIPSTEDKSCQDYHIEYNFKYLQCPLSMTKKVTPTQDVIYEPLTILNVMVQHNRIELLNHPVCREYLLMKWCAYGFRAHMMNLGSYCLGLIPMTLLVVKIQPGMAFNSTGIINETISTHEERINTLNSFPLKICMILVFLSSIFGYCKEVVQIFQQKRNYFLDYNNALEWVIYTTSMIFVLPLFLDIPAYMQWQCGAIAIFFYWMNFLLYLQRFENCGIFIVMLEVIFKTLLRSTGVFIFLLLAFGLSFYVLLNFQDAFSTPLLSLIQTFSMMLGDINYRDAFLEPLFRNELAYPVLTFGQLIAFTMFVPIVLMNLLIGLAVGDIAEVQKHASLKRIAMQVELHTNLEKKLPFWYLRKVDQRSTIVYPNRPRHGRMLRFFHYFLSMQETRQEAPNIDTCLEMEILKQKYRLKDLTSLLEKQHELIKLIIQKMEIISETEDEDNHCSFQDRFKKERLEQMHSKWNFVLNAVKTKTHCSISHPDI
Chain of Transient receptor potential cation channel subfamily A member 1 (Rattus norvegicus) (Q6RI86 whole entry): as above
Chain of Transient receptor potential cation channel subfamily M member 8 (Q8R455 whole entry): as the sequence (Q8R455 whole entry, looked up) above

With `O=C1NC(c2cccc([N+](=O)[O-])c2)=CCN1c1ccccc1O` [ICILLIN] the EC50 [1] was 190 nM and the Activity [2] was “Dose-dependent effect”.
In the case of `CC(C)CCC(=O)c1ccoc1` [PERILLAKETONE], the inhibition [3] is reported as 39.3%, the Activity [4] is reported as “inactive” and the Activity [5] is reported as “Active”. The Activity [6] was “Active”, the EC50 ([7]; read-out: EC50) was 19.7 µM and the EC50 ([7]; read-out: pEC50 (converted)) was 40.7 µM. For the same compound, the Efficacy [8] was 181%.
For `C=C(C)C1CC=C(C=O)CC1` (stereo not given) [PERILLALDEHYDE], the inhibition [3] was 64.3%, the Activity [4] was “inactive” and the Activity [5] was “Active”. For the same compound, the EC50 ([7]; read-out: EC50) was 41 µM, the EC50 ([7]; read-out: pEC50 (converted)) was 19.5 µM and the Efficacy [8] was 74.6%.
